Laboratory results published in ChEMBL document CHEMBL1141160, “Structure-based optimization of phenylbutyrate-derived histone deacetylase inhibitors” (J Med Chem, 2005).
pIC50: −log10 of the molar value.

Experiments:
[1] = target: Histone deacetylase; details: prostate
Description: In vitro inhibitory concentration against histone deacetylase of DU-145 prostate cell nuclear extract as deacetylation of biotinylated [3H]-acetyl histone H4 peptide

[2] = tested on: DU-145; experiment: cells; details: Homo sapiens, DU-145, 96 h
Description: Inhibitory concentration against DU-145 prostate cancer cell proliferation over 96 hr

| IC50 [1] [nM] | pIC50 [2] | Structure (SMILES) |
| --- | --- | --- |
| 1200 |  | O=C(CCc1ccc(NC(=O)CCCc2ccccc2)cc1)NO |
| 34 |  | CC[C@H](C(=O)Nc1ccc(C(=O)NO)cc1)c1ccccc1 |
| 68 |  | CC[C@@H](C(=O)Nc1ccc(C(=O)NO)cc1)c1ccccc1 |
| 520 |  | CN(C(=O)CCCc1ccccc1)c1ccc(C(=O)NO)cc1 |
| 98 |  | CC(C)(C(=O)Nc1ccc(C(=O)NO)cc1)c1ccccc1 |
|  | 6.09 | CC(C)[C@@H](C(=O)Nc1ccc(C(=O)NO)cc1)c1ccccc1 |
| 157 |  | O=C(Cc1ccccc1)Nc1ccc(C(=O)NO)cc1 |
| 54 |  | CCC(C(=O)Nc1ccc(C(=O)NO)cc1)c1ccccc1 (racemic) |
|  | 6.96 | CC(C)[C@H](C(=O)Nc1ccc(C(=O)NO)cc1)c1ccccc1 [AR-42] |

| Structure (SMILES) | IC50 [1] [nM] | pIC50 [2] |
| --- | --- | --- |
| CC(C)(CCc1ccccc1)C(=O)Nc1ccc(C(=O)NO)cc1 | 25 |  |
| O=C(CCCCc1ccccc1)Nc1ccc(C(=O)NO)cc1 | 250 |  |
| O=C(NO)c1ccc(NC(=O)c2ccccc2)cc1 | 210 |  |
| O=C(CCCc1ccccc1)NCc1ccc(C(=O)NO)cc1 | 530 |  |
